According to ChEMBL document CHEMBL3865826, “Synthesis and biological evaluation of a series of non-hemiacetal ester derivatives of artemisinin” (Eur J Med Chem, 2016):

Assays:
[1] = tested on: CHO; assay: Selectivity index, ratio of IC50 for CHO cells to IC50 for human MCF7 cells; type: functional
[2] = Growth inhibition of human TK10 cells measured after 24 hrs by SRB assay; type: functional, cell-based; settings: TK-10, 24 h
[3] = Thermal stability of the compound assessed as melting point by thermogravimetric analysis; type: physicochemical
[4] = Selectivity index, ratio of IC50 for CHO cells to IC50 for chloroquine-sensitive asexual erythrocyte stage form Plasmodium falciparum NF54; type: toxicity, cell-based; settings: hamster, read-out: Ratio IC50
[5] = tested on: CHO; assay: Selectivity index, ratio of IC50 for CHO cells to IC50 for human TK10 cells; type: functional
[6] = Selectivity index, ratio of IC50 for human TK10 cells to IC50 for chloroquine-resistant asexual erythrocyte stage form Plasmodium falciparum Dd2; type: functional, TK-10
[7] = Thermal stability of the compound assessed as onset of decomposition temperature by thermogravimetric analysis; type: physicochemical
[8] = Selectivity index, ratio of IC50 for human UACC62 cells to IC50 for chloroquine-resistant asexual erythrocyte stage form Plasmodium falciparum Dd2; type: functional, UACC-62
[9] = Cytotoxicity against CHO cells assessed as reduction in cell viability measured after 48 hrs by MTT assay; type: toxicity, cell-based, Cricetulus griseus; settings: Chinese hamster
[10] = tested on: Plasmodium falciparum; assay: Antiplasmodial activity against chloroquine-sensitive asexual erythrocyte stage form Plasmodium falciparum NF54 measured after 48 hrs by pLDH assay; type: functional; settings: NF54, 48 h
[11] = Cytotoxicity against human WI38 cells assessed as reduction in cell viability measured after 48 hrs by SRB assay; type: toxicity, cell-based, WI-38
[12] = Growth inhibition of human MCF7 cells measured after 24 hrs by SRB assay; type: functional, cell-based; settings: MCF7, 24 h
[13] = tested on: MCF7; assay: Selectivity index, ratio of IC50 for human WI38 cells to IC50 for human MCF7 cells; type: functional
[14] = tested on: Plasmodium falciparum; assay: Antiplasmodial activity against chloroquine-resistant asexual erythrocyte stage form Plasmodium falciparum Dd2 measured after 48 hrs by pLDH assay; type: functional; settings: Dd2, 48 h
[15] = Resistance index, ratio of IC50 for chloroquine-resistant asexual erythrocyte stage form Plasmodium falciparum Dd2 to IC50 for chloroquine-sensitive asexual erythrocyte stage form Plasmodium falciparum NF54; type: functional
[16] = Thermal stability of the compound assessed as transition temperature by differential scanning calorimetry; type: physicochemical
[17] = tested on: WI-38; assay: Selectivity index, ratio of IC50 for human WI38 cells to IC50 for human TK10 cells; type: functional
[18] = Growth inhibition of human UACC62 cells measured after 24 hrs by SRB assay; type: functional, cell-based; settings: UACC-62, 24 h
[19] = Selectivity index, ratio of IC50 for human WI38 cells to IC50 for chloroquine-sensitive asexual erythrocyte stage form Plasmodium falciparum NF54; type: toxicity, cell-based, WI-38; settings: read-out: Ratio IC50
[20] = tested on: UACC-62; assay: Selectivity index, ratio of IC50 for human WI38 cells to IC50 for human UACC62 cells; type: functional
[21] = tested on: CHO; assay: Selectivity index, ratio of IC50 for CHO cells to IC50 for human UACC62 cells; type: functional
[22] = Selectivity index, ratio of IC50 for human MCF7 cells to IC50 for chloroquine-resistant asexual erythrocyte stage form Plasmodium falciparum Dd2; type: functional
[23] = Thermal stability of the compound assessed as endotherm temperature by differential scanning calorimetry; type: physicochemical
[24] = Safety index, ratio of compound IC50 to emetine IC50 for human WI38 cells; type: ADME, cell-based, WI-38; settings: read-out: Ratio IC50
[25] = Safety index, ratio of compound IC50 to emetine IC50 for CHO cells; type: ADME, cell-based, Cricetulus griseus; settings: Chinese hamster, read-out: Ratio IC50

| SMILES | Ratio IC50 [1] | IC50 [2] [µM] | Tm [3] [°C] | selectivity ratio [4] | Ratio IC50 [5] | Ratio IC50 [6] | T [7] [°C] | Ratio IC50 [8] | IC50 at 48 h [9] [µM] | IC50 [10] [µM] | IC50 at 48 h [11] [µM] | IC50 [12] [µM] | Ratio IC50 [13] | IC50 [14] [µM] | Ratio IC50 [15] | Ratio IC50 [17] | IC50 [18] [µM] | selectivity ratio [19] | Ratio IC50 [20] | Ratio IC50 [22] | also measured |
| --- | --- | --- | --- | --- | --- | --- | --- | --- | --- | --- | --- | --- | --- | --- | --- | --- | --- | --- | --- | --- | --- |
| C[C@@H]1CC[C@H]2C(C)(COC(=O)c3ccc([N+](=O)[O-])cc3)O[C@@H]3O[C@]4(C)CC[C@@H]1[C@]32OO4 (stereo partly specified) | >2 | 56 | 172.4 | > 14900 | >2 | 21539 | 220 | 17077 | > 100 | 0.0067 | > 100 | 44.4 | >2 | 0.0026 | 0.4 | >2 | > 100 | > 14900 | – | – | T [16]: 110 °C |
| C[C@@H]1CC[C@H]2C(C)(CO)O[C@@H]3O[C@]4(C)CC[C@@H]1[C@]32OO4 (stereo partly specified) | – | > 100 | 160.9 | > 24400 | – | – | 144 | – | > 100 | 0.0041 | > 100 | > 100 | – | 0.0074 | 1.8 | – | > 100 | > 24400 | – | – | – |
| C[C@@H]1CC[C@H]2C(C)(COC(=O)c3ccc(F)cc3)O[C@@H]3O[C@]4(C)CC[C@@H]1[C@]32OO4 (stereo partly specified) | >40 | 41.7 | 171.9 | 27000 | >2 | 6415 | – | 1846 | > 100 | 0.0037 | > 100 | 2.5 | >40 | 0.0044 | 1.2 | >2 | 12 | > 27000 | >8 | 385 | Ratio IC50 [21]: >8 |
| C[C@@H]1CC[C@H]2C(C)(COC(=O)c3ccc(-c4ccccc4)cc3)O[C@@H]3O[C@]4(C)CC[C@@H]1[C@]32OO4 (stereo partly specified) | >40 | 41.7 | 173.8 | > 13700 | >2 | 6415 | – | 1846 | > 100 | 0.0073 | > 100 | 2.51 | >40 | 0.0065 | 0.9 | >2 | 12 | > 13700 | >8 | 385 | Ratio IC50 [21]: >8 |
| CC(=O)OCC1(C)O[C@@H]2O[C@]3(C)CC[C@H]4[C@H](C)CC[C@@H]1[C@@]24OO3 (stereo partly specified) | – | > 100 | 171.2 | > 8920 | – | – | 164 | – | > 100 | 0.0112 | > 100 | > 100 | – | 0.0126 | 1.1 | – | > 100 | > 8920 | – | – | T [23]: 90 °C |
| C[C@@H]1CC[C@H]2C(C)(COC(=O)c3cccs3)O[C@@H]3O[C@]4(C)CC[C@@H]1[C@]32OO4 (stereo partly specified) | >2 | > 100 | 170.8 | > 20800 | – | – | – | 6661 | > 100 | 0.0048 | > 100 | 46.6 | >2 | 0.0059 | 1.2 | – | 39.3 | > 20800 | – | 7898 | – |
| C[C@@H]1CC[C@H]2C(C)(COC(=O)[C@@H]3CCCN3C(=O)C(F)(F)F)O[C@@H]3O[C@]4(C)CC[C@@H]1[C@]32OO4 (stereo partly specified) | 33.5 | 13 | 172.2 | 12300 | 7.5 | 1667 | 126 | 385 | 97.1 | 0.0079 | 31.6 | 2.9 | 11 | 0.0078 | 1 | 2 | 3 | 4000 | 11 | 372 | selectivity ratio [24]: ≤ 600; Ratio IC50 [21]: 32.4; T [16]: 116 °C; selectivity ratio [25]: ≤ 600 |
| C[C@@H]1CC[C@H]2C(C)(C=O)O[C@@H]3O[C@]4(C)CC[C@@H]1[C@]32OO4 (stereo partly specified) | – | 36.6 | 174.9 | > 14500 | – | 8927 | – | 1900 | > 100 | 0.0069 | > 100 | 6.4 | 6 | 0.0041 | 0.6 | >3 | 7.8 | > 14500 | >13 | 1560 | – |
| C[C@@H]1CC[C@H]2C(C)(COC(=O)CCc3ccccc3)O[C@@H]3O[C@]4(C)CC[C@@H]1[C@]32OO4 (stereo partly specified) | >3 | > 100 | – | > 13500 | – | – | – | 6026 | > 100 | 0.0074 | > 100 | 34.2 | >3 | 0.0115 | 1.6 | – | 69.3 | > 13500 | >1.4 | 2974 | Ratio IC50 [21]: >1.4 |
| C[C@@H]1CC[C@H]2C(C)(COC(=O)c3cc4ccccc4o3)O[C@@H]3O[C@]4(C)CC[C@@H]1[C@]32OO4 (stereo partly specified) | >6 | > 100 | 172.1 | > 6850 | – | – | – | 11085 | > 100 | 0.0146 | > 100 | 18.2 | >6 | 0.0071 | 0.5 | – | 78.7 | > 6850 | – | 2563 | – |
